# Where two headings read alike, the source gives them in different places.
# How the values were obtained:
# [1] = system: representative bacteria tested in vitro, whether Gram-positive or Gram-negative; assay: In vitro growth inhibition of active component suspended in chloroform, mixed with water, chloroform evaporated; format: cell-based; conditions: pH neutral or acidic, no lecithin or chitosan
# Description: In another preparation, each of the lauric acid derivatives of TABLE 4 was independently suspended in an organic solvent, chloroform, and then mixed with water, generally under agitated conditions. This was followed by chloroform evaporation, generally under vacuum, using a freeze dryer. The same preparations were evaluated against the positive control, decanoic acid. Here, for all samples, the amount of water to the amount of chloroform was at least 2:1, and was as high as 10:1. The pH was neutral or was acidic. For each of the lauric acid derivatives as so prepared independently, there was no evidence of any growth inhibitory activity (growth inhibition) against representative bacteria tested in vitro, whether Gram-positive or Gram-negative.
# Miscibility with water = format: physicochemical; conditions: mixed with water under agitated conditions
# Description: (§1) Initially, to determine basic characteristics, each active component was separately mixed, generally under agitated conditions, with water, and each was miscible with water. Each, after being mixed with water, was tested in a broth microdilution assay, against a variety of bacteria using amounts of the each of the lauric acid derivatives, ranging from about 0.0009 wt. % to about 8 wt. %. The bacteria included Escherichia coli, and Staphylococcus aureus (including MRSA strains). The minimum inhibitory concentration (MIC) needed to prevent growth of the target bacteria was evaluated based on a method published by Clinical Laboratory Standards Institute (CLSI), broth microdilution method M-07 (M07). […] Each of the samples containing one of the lauric acid derivatives was compared with a positive control, decanoic acid.
# E. coli = assay: Broth microdilution MIC of lecithin/chitosan particle compositions; format: cell-based; conditions: lecithin/chitosan particle composition; prep. mixture pH 5 or pH 7; maximum concentration tested 10 mg/ml
# Description: as §1
# (§2) For TABLES 1 to 3, compositions were generally prepared as described above, and as further outlined in this paragraph. For these examples, the active component, as a lauric acid derivative or lauric acid, was suspended in an organic solvent, chloroform, and then mixed with water, under robust agitation. The amount of water to the amount of chloroform was at least about 2:1, and could be as high as 10:1. Chloroform was then evaporated (e.g., under vacuum using a freeze dryer). After removal of the chloroform, a 2.2% lecithin solution in an acetate buffer (e.g., 98 mM acetic acid and 2 mM sodium acetate) was prepared and added, so the final amount of the active component was about 1 part active component mixture and about 9 parts of the 2.2% lecithin solution. Of course, it is noted that other ranges to achieve final amount of the active component as described above (e.g., active component mixture and lecithin solution) may also be utilized. Cholesterol could also be optionally added. The mixture of lecithin and the active component was mixed and sonicated, and then a solution of about 1.5% chitosan was added. Thereafter, the entirety of the mixture containing the lecithin and the active component was further blended, in which a final ratio was about 1 part active component to about 9 parts of the 2.2% lecithin solution to about 10 parts of the 1.5% chitosan solution. The pH was then varied, to a pH of 5, or a pH of 7, or a pH of 9. In some mixtures having a pH of 7, a chemical agent imparting a positive charge to the chitosan was included in a form of glycol chitosan. In these tests, the chemical agent used was glycol. In these examples, the amount of chemical agent, glycol was about one molecule glycol moiety to one molecule chitosan sacharide unit; higher amounts of glycol moieties are also acceptable, while lower amounts of glycol moieties were often found to decrease overall inhibitory activity associated with a composition when formed and tested in vitro. It is noted that negatively charged chitosan containing particles were prepared. […] After mixing, the mixtures could each be filtered through a […] filter. In some tests, the mixtures were sonicated before filtering. Sonication produced small particles. In some studies, particles were freeze dried as a powder (generally, after mixing, sonicating and filtering).
# (§3) The positive controls were prepared and evaluated in a similar manner. All prepared samples were tested using a broth microdilution test.
# S. epidermidis = assay: as above; format: cell-based; conditions: Staphylococcus epidermidis, lecithin/chitosan particle composition, prep. mixture pH 5 or pH 7, maximum concentration tested 10 mg/ml
# Description: as §1, §2, §3
smiles,measurement,setting,value
"CCCCCCCCCC(=O)O [decanoic acid, reference compound]",Growth inhibitory activity against representative bacteria,[1],did not demonstrate growth inhibitory activity
same,Miscibility with water,Miscibility with water,not miscible in water
same,MIC (mg/ml) for E. coli (chitosan prep. mixture was at pH 5 or at pH 7),E. coli,— (no inhibitory activity)
same,MIC,"S. epidermidis; Table 3, read-out: MIC (mg/ml) S. epidermidis (chitosan prep. mixture at pH 5 or at pH 7)",10 mg/mL
same,MIC,S. epidermidis; read-out: MIC (mg/ml) for S. epidermidis (chitosan prep. mixture was at pH 5 or at pH 7),10 mg/mL
